Source: publication PMC8745223, “Novel 1,3,5-Triazinyl Aminobenzenesulfonamides Incorporating Aminoalcohol, Aminochalcone and Aminostilbene Structural Motifs as Potent Anti-VRE Agents, and Carbonic Anhydrases I, II, VII, IX, and XII Inhibitors” (International Journal of Molecular Sciences, 2021)
In brackets after ≈: the same amount, converted by molar mass.

Columns and labels:
[1] = test system: T1, E. faecalis ATCC 29212 (EF); assay: microbe, parasite or virus in culture; parameters: broth microdilution MIC in BHI, Alamar Blue read-out, 37 °C; details: Enterococcus faecalis, ATCC29212, 24 h
T1 construct: ATCC 29212
Method: (§1) The inhibition activity against enterococci was evaluated by the microtitration broth method according to the Clinical and Laboratory Standards Institute with some modifications. The compounds were dissolved in DMSO and serially diluted in Brain Hearth Infusion (BHI) to reach concentrations 256–2 µg/mL. […] The experiment was repeated at least three times. All the investigated compounds were tested on their anti-staphylococcal activity against three clinical isolates of methicillin-resistant Staphylococcus aureus (MRSA) and S. aureus ATCC 29213 as the reference and quality control strain.

[2] = test system: T2, Enterococcus faecalis VRE 725 B; assay: organism not typed; parameters: broth microdilution MIC in BHI, Alamar Blue read-out, 37 °C; details: 24 h
T2 construct: VRE 725B (vanA clinical isolate)
Method: as §1, with “strain. […] All the compounds were tested against Enterococcus faecalis ATCC 29212 as the reference strain and three isolates from American crows of vanA-carrying vancomycin-resistant E. faecalis (VRE), and the activities, expressed as minimum inhibitory concentrations (MICs), are listed in Table 3.” for “strain.”

[3] = test system: T3, Enterococcus faecalis VRE 368; assay: organism not typed; parameters: broth microdilution MIC in BHI, Alamar Blue read-out, 37 °C; details: 24 h
T3 construct: VRE 368 (vanA clinical isolate)
Method: as §1

[4] = test system: T4, Enterococcus faecalis VRE 342 B; assay: organism not typed; parameters: broth microdilution MIC in BHI, Alamar Blue read-out, 37 °C; details: 24 h
T4 construct: VRE 342 B (vanA clinical isolate)
Method: as §1

hCA XII = target: T5, hCA XII (Homo sapiens, UniProt O43570); assay: stopped-flow CO2 hydration assay; type: biochemical
T5 construct: gene CA12; recombinant
T5 sequence (O43570 25-354): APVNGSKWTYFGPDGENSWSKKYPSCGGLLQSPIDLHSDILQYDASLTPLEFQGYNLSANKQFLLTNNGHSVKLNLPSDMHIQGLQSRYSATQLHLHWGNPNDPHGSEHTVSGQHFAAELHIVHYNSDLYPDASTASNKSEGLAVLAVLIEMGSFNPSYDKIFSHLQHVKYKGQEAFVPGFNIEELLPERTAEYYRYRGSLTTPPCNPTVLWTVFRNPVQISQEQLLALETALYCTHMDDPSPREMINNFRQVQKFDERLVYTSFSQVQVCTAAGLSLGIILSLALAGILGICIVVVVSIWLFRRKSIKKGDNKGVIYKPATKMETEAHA
Procedure, shortened: (§2)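 Ki was derived by non-linear least squares using the Cheng–Prusoff equation. The underlying data were initial rates of CO2 hydration by recombinant human carbonic anhydrase, measured by stopped-flow for 10–100 s with 0.2 mM phenol red (557 nm), 20 mM Hepes pH 7.5, 20 mM Na2SO4 and 1.7–17 mM CO2, after a 15 min room-temperature preincubation of enzyme with inhibitor. Uncatalysed rates were subtracted, at least six traces were used per rate, and values were averaged over three or more determinations.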

hCA IX = target: T6, hCA IX (Homo sapiens, UniProt Q16790); assay: stopped-flow CO2 hydration assay; type: biochemical
T6 construct: gene CA9; recombinant
Procedure, shortened: as §2

hCA II = target: T7, hCA II (Homo sapiens, UniProt P00918); assay: stopped-flow CO2 hydration assay; type: biochemical
T7 construct: gene CA2; recombinant
Procedure, shortened: as §2

hCA I = target: T8, hCA I (Homo sapiens, UniProt P00915); assay: stopped-flow CO2 hydration assay; type: biochemical
T8 construct: gene CA1; recombinant
T8 sequence (P00915 2-261): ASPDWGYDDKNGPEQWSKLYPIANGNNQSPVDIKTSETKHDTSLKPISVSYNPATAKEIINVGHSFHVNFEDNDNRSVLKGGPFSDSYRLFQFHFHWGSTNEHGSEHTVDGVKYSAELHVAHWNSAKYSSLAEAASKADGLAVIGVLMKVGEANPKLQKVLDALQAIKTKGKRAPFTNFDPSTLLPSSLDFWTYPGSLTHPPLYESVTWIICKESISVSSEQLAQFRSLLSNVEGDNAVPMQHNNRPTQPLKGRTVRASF
Procedure, shortened: as §2

hCA VII = target: T9, hCA VII (Homo sapiens, UniProt P43166); assay: stopped-flow CO2 hydration assay; type: biochemical
T9 construct: gene CA7; recombinant
T9 sequence (P43166 whole entry): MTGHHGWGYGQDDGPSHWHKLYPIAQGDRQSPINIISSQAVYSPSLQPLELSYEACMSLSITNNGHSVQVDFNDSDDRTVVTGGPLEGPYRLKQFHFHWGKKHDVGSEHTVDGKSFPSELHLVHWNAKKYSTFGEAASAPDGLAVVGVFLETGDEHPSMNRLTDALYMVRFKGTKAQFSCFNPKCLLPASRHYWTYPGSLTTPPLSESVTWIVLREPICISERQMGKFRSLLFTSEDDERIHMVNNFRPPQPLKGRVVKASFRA
Procedure, shortened: as §2

Structure (SMILES)	MIC [1]	MIC [2]	MIC [3]	MIC [4]	MIC [µM] / VRE 725 B ([2]; inhibitor)	Ki (hCA XII)	Ki (hCA IX)	Ki (hCA II)	Ki (hCA I)	Ki (hCA VII)
NS(=O)(=O)c1ccc(CNc2nc(Cl)nc(NCc3ccc(S(N)(=O)=O)cc3)n2)cc1 [7 ^a]	16.5 µM (≈ 7.98 µg/mL)	131 µM (≈ 63.4 µg/mL)	33 µM (≈ 16 µg/mL)	66 µM (≈ 31.9 µg/mL)	–	–	–	–	–	–
CC1(C)S[C@@H]2[C@H](NC(=O)[C@H](N)c3ccccc3)C(=O)N2[C@H]1C(=O)O [ampicillin]	–	–	–	–	5.72 µM (≈ 2 µg/mL)	–	–	–	–	–
NS(=O)(=O)c1ccc(Nc2nc(NCCCO)nc(Nc3ccc(/C=C/c4cccc(O)c4)cc3)n2)cc1 [compound 4, (E)-4-({4-[(3-Hydroxypropyl)amino]-6-{[4-(3-hydroxystyryl)phenyl]amino}-1,3,5-triazin-2-yl}amino)benzenesulfonamide]	–	–	–	–	–	65.8 nM	27.5 nM	3640 nM	7520 nM	–
NS(=O)(=O)c1ccc(CNc2nc(Cl)nc(NCCCO)n2)cc1 [compound 5, 5]	–	–	–	–	–	–	–	–	–	332 nM
NS(=O)(=O)c1ccc(CNc2nc(NCCCO)nc(Nc3ccc(/C=C/c4cccc(O)c4)cc3)n2)cc1 [compound 17, 17]	> 467 µM	> 467 µM	467 µM (≈ 256 µg/mL)	> 467 µM	–	493 nM	22.2 nM	46.8 nM	358 nM	–
NS(=O)(=O)c1ccc(CCNc2nc(Cl)nc(NCCCO)n2)cc1 [compound 18, 18]	330 µM (≈ 128 µg/mL)	661 µM (≈ 256 µg/mL)	661 µM (≈ 256 µg/mL)	330 µM (≈ 128 µg/mL)	–	–	–	–	–	75.7 nM
NS(=O)(=O)c1ccc(CCNc2nc(NCCCO)nc(Nc3ccc(/C=C/c4ccccc4)cc3)n2)cc1 [compound 30, (E)-4-[2-({4-[(3-Hydroxypropyl)amino]-6-[(4-styrylphenyl)amino]-1,3,5-triazin-2-yl}amino)ethyl]benzenesulfonamide]	> 469 µM	> 469 µM	> 469 µM	> 469 µM	–	7.6 nM	12.1 nM	5130 nM	5700 nM	–
NS(=O)(=O)c1ccc(CCNc2nc(NCC(O)CO)nc(Nc3ccc(/C=C/c4ccccc4)cc3)n2)cc1 (centres unmarked) [compound 31, (E)-4-{2-[(4-[(2,3-Dihydroxypropyl)amino]-6-[(4-styrylphenyl)amino]-1,3,5-triazin-2-yl)amino]ethyl}benzenesulfonamide]	> 455 µM	> 455 µM	> 455 µM	> 455 µM	–	4.4 nM	248 nM	335 nM	36.9 nM	–
NS(=O)(=O)c1ccc(CCNc2nc(Nc3ccc(O)cc3)nc(Nc3ccc(/C=C/c4ccccc4)cc3)n2)cc1 [compound 32, (E)-4-{2-[(4-[(4-Hydroxyphenyl)amino]-6-[(4-styrylphenyl)amino]-1,3,5-triazin-2-yl)amino]ethyl}benzenesulfonamide]	13.8 µM (≈ 8 µg/mL)	55.2 µM (≈ 32 µg/mL)	27.6 µM (≈ 16 µg/mL)	27.6 µM (≈ 16 µg/mL)	–	5.9 nM	2470 nM	7490 nM	90.6 nM	–
NS(=O)(=O)c1ccc(CCNc2nc(NCc3ccc(S(N)(=O)=O)cc3)nc(Nc3ccc(/C=C/c4ccccc4)cc3)n2)cc1 [compound 33]	97.4 µM (≈ 64 µg/mL)	194 µM (≈ 127 µg/mL)	389 µM (≈ 255 µg/mL)	194 µM (≈ 127 µg/mL)	–	6.2 nM	1970 nM	57.9 nM	48 nM	–
NS(=O)(=O)c1ccc(CCNc2nc(NCC(O)CO)nc(Nc3ccc(/C=C/c4ccccc4O)cc3)n2)cc1 (centres unmarked) [compound 34, (E)-4-{2-[(4-[(2,3-Dihydroxypropyl)amino]-6-{[4-(2-hydroxystyryl)phenyl]amino}-1,3,5-triazin-2-yl)amino]ethyl}benzenesulfonamide]	> 443 µM	> 443 µM	> 443 µM	> 443 µM	–	8.5 nM	2710 nM	5630 nM	1670 nM	–
NS(=O)(=O)c1ccc(CCNc2nc(Nc3ccc(O)cc3)nc(Nc3ccc(/C=C/c4ccccc4O)cc3)n2)cc1 [compound 35, 35]	> 429 µM	> 429 µM	> 429 µM	> 429 µM	–	37.1 nM	238 nM	5470 nM	3940 nM	–
NS(=O)(=O)c1ccc(CCNc2nc(NCc3ccc(S(N)(=O)=O)cc3)nc(Nc3ccc(/C=C/c4ccccc4O)cc3)n2)cc1 [compound 36, (E)-4-{2-[(4-{[4-(2-Hydroxystyryl)phenyl]amino}-6-[(4-sulfamoylbenzyl)amino]-1,3,5-triazin-2-yl)amino]ethyl}benzenesulfonamide]	> 380 µM	> 380 µM	> 380 µM	> 380 µM	–	8.3 nM	2720 nM	82 nM	448 nM	–
NS(=O)(=O)c1ccc(CCNc2nc(NCCCO)nc(Nc3ccc(/C=C/c4cccc(O)c4)cc3)n2)cc1 [compound 37, 37]	> 455 µM	> 455 µM	> 455 µM	> 455 µM	–	601 nM	26.4 nM	73.5 nM	675 nM	–
NS(=O)(=O)c1ccc(CCNc2nc(NCC(O)CO)nc(Nc3ccc(/C=C/c4cccc(O)c4)cc3)n2)cc1 (centres unmarked) [compound 38, (E)-4-{2-[(4-[(2,3-Dihydroxypropyl)amino]-6-{[4-(3-hydroxystyryl)phenyl]amino}-1,3,5-triazin-2-yl)amino]ethyl}benzenesulfonamide]	> 443 µM	> 443 µM	> 443 µM	> 443 µM	–	84.5 nM	17.3 nM	4440 nM	6730 nM	–
NS(=O)(=O)c1ccc(CCNc2nc(Nc3ccc(O)cc3)nc(Nc3ccc(/C=C/c4cccc(O)c4)cc3)n2)cc1 [compound 39, 39]	> 429 µM	> 429 µM	> 429 µM	> 429 µM	–	68.5 nM	876 nM	154 nM	742 nM	–
NS(=O)(=O)c1ccc(CCNc2nc(NCc3ccc(S(N)(=O)=O)cc3)nc(Nc3ccc(/C=C/c4cccc(O)c4)cc3)n2)cc1 [compound 40, (E)-4-{2-[(4-{[4-(3-Hydroxystyryl)phenyl]amino}-6-[(4-sulfamoylbenzyl)amino]-1,3,5-triazin-2-yl)amino]ethyl}benzenesulfonamide]	190 µM (≈ 128 µg/mL)	190 µM (≈ 128 µg/mL)	380 µM (≈ 256 µg/mL)	190 µM (≈ 128 µg/mL)	–	60.5 nM	20.3 nM	18.9 nM	48.8 nM	–
NS(=O)(=O)c1ccc(CCNc2nc(NCC(O)CO)nc(Nc3ccc(/C=C/c4ccc(O)cc4)cc3)n2)cc1 (centres unmarked) [compound 42, (E)-4-{2-[(4-[(2,3-Dihydroxypropyl)amino]-6-{[4-(4-hydroxystyryl)phenyl]amino}-1,3,5-triazin-2-yl)amino]ethyl}benzenesulfonamide]	55.4 µM (≈ 32 µg/mL)	221 µM (≈ 128 µg/mL)	221 µM (≈ 128 µg/mL)	110 µM (≈ 63.5 µg/mL)	–	9.7 nM	258 nM	96.3 nM	43.5 nM	–
CN[C@H](CC(C)C)C(=O)N[C@H]1C(=O)N[C@@H](CC(N)=O)C(=O)N[C@H]2C(=O)N[C@H]3C(=O)N[C@H](C(=O)N[C@H](C(=O)O)c4cc(O)cc(O)c4-c4cc3ccc4O)[C@H](O)c3ccc(c(Cl)c3)Oc3cc2cc(c3O[C@@H]2O[C@H](CO)[C@@H](O)[C@H](O)[C@H]2O[C@H]2C[C@](C)(N)[C@H](O)[C@H](C)O2)Oc2ccc(cc2Cl)[C@H]1O [vancomycin]	–	706 µM (≈ 1020 µg/mL)	353 µM (≈ 512 µg/mL)	353 µM (≈ 512 µg/mL)	–	–	–	–	–	–
